Experimental data as given in patent US20200060276A1, “THIAZOLE COMPOUND AND HERBICIDE” (OAT Agrio Co., Ltd., priority 2017, published 2020).

Key:
Format in all cases: in vivo
[1] = test system: Echinochloa crus-galli (L.) P. Beauv. var. formosensis Ohwi; assay: Test for Herbicidal Effect in Flooding Treatment (#1), ECHDG; conditions: for ECHDG #1 herbicidal effect (growth inhibition grade): flooding treatment at seeding, dose 2 kg/ha, visual observation on day 21; for ECHDG #1 herbicidal effect (growth inhibition rating 0-5): flooding treatment #1
How it was run: (§1)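 Flooded soil in cups was seeded 24 h after flooding, then treated with compound in acetone diluted with Tween 80-containing water, dropped onto the water surface at 2 kg/ha. After growth in a glasshouse, growth inhibition was scored visually on day 21 on a 0 (<10%) to 5 (≥90% or complete withering) scale.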

[2] = test system: Scirpus juncoides; assay: Test for Herbicidal Effect in Flooding Treatment (#1), SCIJU; conditions: for SCIJU #1 herbicidal effect (growth inhibition grade): flooding treatment at seeding, dose 2 kg/ha, visual observation on day 21; for SCIJU #1 herbicidal effect (growth inhibition rating 0-5): flooding treatment #1
How it was run: as §1

[3] = test system: Echinochloa crus-galli (L.) P. Beauv. var. formosensis Ohwi; assay: Test for Herbicidal Effect in Flooding Treatment (#2), ECHDG at 2-2.5 leaf stage; conditions: for ECHDG (2-2.5L) #2 herbicidal effect (growth inhibition grade): flooding treatment at 2-2.5 leaf stage, dose 0.2 kg/ha, visual observation on day 21; for ECHDG (2-2.5L) #2 herbicidal effect (growth inhibition rating 0-5): flooding treatment #2, 2-2.5 leaf stage
How it was run: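 Scoring is a visual 0–5 scale of growth inhibition (0 below 10%, 5 at 90% or more or full withering), taken 21 days after treatment in a glasshouse. Dose was 0.2 kg/ha, applied as acetone/Tween 80 aqueous solution onto flooded soil once seedlings reached the 2–2.5 leaf stage.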

[4] = test system: Monochoria vaginalis; assay: Test for Herbicidal Effect in Flooding Treatment (#1), MONVA; conditions: for MONVA #1 herbicidal effect (growth inhibition grade): flooding treatment at seeding, dose 2 kg/ha, visual observation on day 21; for MONVA #1 herbicidal effect (growth inhibition rating 0-5): flooding treatment #1
How it was run: as §1

Compound	ECHDG #1 herbicidal effect (growth inhibition grade) [1]	SCIJU #1 herbicidal effect (growth inhibition grade) [2]	ECHDG (2-2.5L) #2 herbicidal effect (growth inhibition grade) [3]	MONVA #1 herbicidal effect (growth inhibition grade) [4]	ECHDG #1 herbicidal effect (growth inhibition rating 0-5) [1]	SCIJU #1 herbicidal effect (growth inhibition rating 0-5) [2]	ECHDG (2-2.5L) #2 herbicidal effect (growth inhibition rating 0-5) [3]	MONVA #1 herbicidal effect (growth inhibition rating 0-5) [4]
O=S(=O)(Cc1c(F)cccc1OC(F)F)c1ncc(Cl)s1 [Compound 1C-43]	5 (Growth inhibition effect is equal to or greater than 90%, or complete withering is achieved)	5 (Growth inhibition effect is equal to or greater than 90%, or complete withering is achieved)	5 (Growth inhibition effect is equal to or greater than 90%, or complete withering is achieved)	5 (Growth inhibition effect is equal to or greater than 90%, or complete withering is achieved)	–	–	–	–
[O-][S+](Cc1c(Cl)cccc1OC(F)F)c1ncc(Br)s1 (stereo not drawn) [Compound 1B-20]	–	–	–	–	5 (Growth inhibition effect is equal to or greater than 90%, or complete withering is achieved)	5 (Growth inhibition effect is equal to or greater than 90%, or complete withering is achieved)	5 (Growth inhibition effect is equal to or greater than 90%, or complete withering is achieved)	5 (Growth inhibition effect is equal to or greater than 90%, or complete withering is achieved)
[O-][S+](Cc1c(Cl)cccc1OC(F)(F)C(F)(F)F)c1ncc(Br)s1 (stereo not drawn) [Compound 1B-24]	–	–	–	–	5 (Growth inhibition effect is equal to or greater than 90%, or complete withering is achieved)	5 (Growth inhibition effect is equal to or greater than 90%, or complete withering is achieved)	5 (Growth inhibition effect is equal to or greater than 90%, or complete withering is achieved)	5 (Growth inhibition effect is equal to or greater than 90%, or complete withering is achieved)
O=S(=O)(Cc1c(OC(F)F)ccc(Cl)c1F)c1ncc(Cl)s1 [Compound 1C-45]	5 (Growth inhibition effect is equal to or greater than 90%, or complete withering is achieved)	5 (Growth inhibition effect is equal to or greater than 90%, or complete withering is achieved)	5 (Growth inhibition effect is equal to or greater than 90%, or complete withering is achieved)	5 (Growth inhibition effect is equal to or greater than 90%, or complete withering is achieved)	–	–	–	–
[O-][S+](Cc1c(OCC(F)F)cccc1C(F)(F)F)c1ncc(Cl)s1 (stereo not drawn) [Compound 1B-8]	–	–	–	–	5 (Growth inhibition effect is equal to or greater than 90%, or complete withering is achieved)	5 (Growth inhibition effect is equal to or greater than 90%, or complete withering is achieved)	5 (Growth inhibition effect is equal to or greater than 90%, or complete withering is achieved)	5 (Growth inhibition effect is equal to or greater than 90%, or complete withering is achieved)
CC(=O)C(C(C)=O)(c1c(F)cccc1OC(F)F)S(=O)(=O)c1ncc(Cl)s1 [Compound 1C-147]	5 (Growth inhibition effect is equal to or greater than 90%, or complete withering is achieved)	5 (Growth inhibition effect is equal to or greater than 90%, or complete withering is achieved)	5 (Growth inhibition effect is equal to or greater than 90%, or complete withering is achieved)	5 (Growth inhibition effect is equal to or greater than 90%, or complete withering is achieved)	–	–	–	–
